Reference: publication PMC2904697, “A Screen for Kinetochore-Microtubule Interaction Inhibitors Identifies Novel Antitubulin Compounds” (PLoS ONE, 2010)
Values joined by “and” are separate entries in the source; they are usually repeats but may differ in a detail not shown here. Equal values may be shown once.

Columns and labels:
αβ-tubulin = assay: Tubulin polymerization tracked turbidimetrically at 350 nm; format: biochemical; conditions: turbidimetric; versus compound B
Procedure: To quantify the antitubulin activity of compound B, we added 1–50 µmol/l compound B to 10 µmol/l αβ-tubulin. […] For this purpose, MTs were assembled from 10 µmol/l αβ-tubulin; 5 min into the reaction compound B was added in concentrations up to 200 µmol/l. MT depolymerization was tracked as a decrease in turbidity at 350 nm (Fig. 5B).
Polymerization of 10 µmol/l αβ-tubulin in BRB-80 buffer was monitored turbidimetrically at 350 nm for 15 min in a temperature-controlled spectrophotometer (37°C; SpectraMax Plus^384, Molecular Devices). To probe the effect of a compound on MT stability the molecule was added 5 min after initiation of tubulin assembly. The decrease in protein turbidity (350 nm) resulting from MT depolymerization was followed for 15 min at 37°C [13]. Quantitative comparisons of drug effects on tubulin assembly were also examined in 0.8 M glutamate with a 15 min drug-tubulin preincubation prior to the addition of GTP [14]. Tubulin assembly was monitored for 20 min at 30°C in Beckman DU7400/7500 spectrophotometers, and the compound concentration inhibiting tubulin assembly by 50% was determined.

[1] = target: recombinant human Ndc80 kinetochore complex binding to taxol-stabilized microtubules; assay: Ndc80^488 complex-MT binding assay (fluorescence microscopy / TIRF); conditions: for IC50: total internal reflection fluorescence microscopy, Ndc80^488 complex 0.1 µmol/l, taxol-stabilized MTs; for Fold more active than compound B in the Ndc80^488 complex-MT binding assay: versus compound B
Excerpt: To screen compound libraries for molecules inhibiting binding of the outer kinetochore Ndc80 complex (Ndc80, Nuf2, Spc24, Spc25) to MTs, we used a fluorescence microscopy-based in vitro approach (Fig. 1). First, the recombinant human Ndc80 construct, used to crystallize the complex, was produced in Escherichia coli using a bicistronic plasmid from which the Nuf2-Spc24 and Ndc80-Spc25 peptides were generated (Fig. 1A). Following their intracellular assembly, the complex was purified from E. coli cell extract based on the GST tag at the N-terminus of Nuf2. The complex was released in solution with PreScission Protease (its recognition sequence was introduced between the GST tag and the NUF2 coding sequence) and was separated from contaminants by gel filtration chromatography (Fig. 1A). The high degree of purity of the preparation was confirmed by SDS-PAGE analysis and coomassie staining, which identified only both peptides (Fig. 1B). Next, the Ndc80 complex was fluorescently labeled with the Alexa Fluor 488 C5-maleimide (next named the Ndc80^488 complex) and was separated from unreacted fluorophore by gel filtration chromatography. The final preparation was highly pure as evidenced by gel filtration analysis and detection at 519 nm (emission maximum of the Alexa Fluor 488 dye) and at 280 nm (intrinsic protein fluorescence) (Fig. 1B). Next, the Ndc80^488 complex (0.1 µmol/l) was incubated with 10,200 compounds (comprising the Chembridge DIVERset and a compound collection from the Univ. Rome) at a starting concentration of 50 µmol/l. Binding (or lack thereof) of the complex to rhodamine-labeled taxol-stabilized MTs (0.1 µmol/l) was scored by wide-field fluorescence microscopy (Fig. 1C; images in Fig. 2A). […] Total internal reflection fluorescence microscopy was used to establish the IC50 value of the compound, which was measured to be ∼20 µmol/l (Fig. 2C).
Recombinant human Ndc80 complex (Ndc80^Bonsai complex) was produced in Escherichia coli using a bicistronic expression plasmid (Fig. 1A, [12]). Following transcription from the TAC promoter/operator by induction with 0.4 mmol/l IPTG (20°C, 15 h), GST-Nuf2-Spc24 and Ndc80-Spc25 polypeptides were generated, which dimerized intracellulary into the GST-Ndc80 complex. The complex was isolated from E. coli cell extract following incubation with glutathione beads. The complex was released from the beads with PreScission Protease (GE Healthcare Life Sciences) and contaminants were removed by gel filtration chromatography (Superdex 200, GE Healthcare Life Sciences). On average 4 mg of Ndc80 complex were obtained from 1 liter of cell culture. Next, 1 mg Ndc80 complex was labeled with 0.1 mg Alexa Fluor 488 C5-maleimide fluorophore (Invitrogen) at a 1.5-2 stoichiometry. The fluorescent complex (Ndc80^488 complex) was separated from unreacted fluorophore by gel filtration chromatography (Fig. 1B) and was then used to screen for compounds inhibiting Ndc80^488 complex-MT binding (Fig. 1C). The Ndc80^488 complex is fully functional as it is recruited to and acts at kinetochores when injected into prometaphase HeLa cells.
MTs were polymerized (30 min, 37°C) from a 1∶10 mixture of rhodamine-labeled:unlabeled bovine brain αβ-tubulin (Cytoskeleton) in BRB-80 buffer (80 mmol/l PIPES pH 6.8, 1 mmol/l MgCl2, 1 mmol/l EGTA) and were then stabilized with 20 µmol/l taxol. The Ndc80^488 complex (0.1 µmol/l) was incubated with 100 µmol/l compound (30 min, 24°C) in 96-well polypropylene plates (Eppendorf). The 10,000 compound DIVERset library (Chembridge) and 200 compounds from the Department of Medicinal Chemistry and Technologies, University of Rome La Sapienza were used in the screen. Next, the MTs (100 nmol/l) were added to the compound-Ndc80^488 complex solution in a 1∶1 v/v ratio. After incubation (10 min, 24°C), the reaction mixtures were transferred to 96-well glass-bottom plates (Greiner Bio-one). […]

HeLa cells = assay: Mitotic delay and cell death in G1/S-synchronized HeLa cells (time-lapse videomicroscopy); format: cell-based, human; conditions: HeLa released from G1/S; 500 nmol/l
Procedure: At compound B concentrations of 5 µmol/l and above, the cells arrested robustly in metaphase (∼15 h) and then underwent cell death, as diagnosed by cell shrinkage (Fig. 3B). […] This phenotype is indicative of chromatids being unable to bind to spindle MTs and/or of spindle defects, as observed with nocodazole (Fig. 3C). […] Because drugs that inhibit tubulin polymerization also destabilize MTs, we next probed whether compound B destabilized metaphase spindles. We arrested HeLa cells in metaphase using 10 µmol/l of proteosome inhibitor MG132. […] Thus, compound B prevents tubulin assembly and destabilizes spindle MTs in cells.
Next, we determined whether the elevated antitubulin activities of compounds A6, A8, D7 and E7 (versus compound B), and the discrepancies in activity between the compounds themselves were reflected in their effects on mitosis. G1/S synchronized HeLa cells were released into growth medium containing 100 or 500 nmol/l of these compounds or compound B; the duration of the mitotic delay by the compounds and the percentage of cells undergoing subsequent cell death were scored. […] The four compounds triggered mitotic delays to an extent that directly reflects their activities in vitro (compare Fig. 6E and Fig. 6, panels B to D). […] Of note, each of our compounds acted in cells with an efficacy exceeding those measured in vitro (compare Fig. 6E and Fig. 5). This discrepancy may be due to increased compound:tubulin ratios in cells. Alternatively, the compounds may be modified intracellularly, resulting in enhanced activity. Because compound B and the four second-generation compounds are 6-furan-2-yl-3-methyl-4-oxo-4,5,6,7-tetrahydro-1H-indole-2-carboxylic acid derivatives, we have named these tubulin inhibitors “furan-metoticas”.

[2] = tested on: colchicine site in αβ-tubulin; assay: [3H]colchicine competition (DEAE-cellulose filter method); format: binding; conditions: [3H]colchicine 5 µmol/l, tubulin 1 µmol/l
Excerpt: Agents that inhibit tubulin polymerization and destabilize MTs include the colchicinoids, combretastatins, benzimidazole carbamates, vinca alkaloids, and maytansinoids. These drugs act primarily at β-tubulin in the αβ-heterodimer, albeit at different sites. Colchicinoids, combretastatins and benzimidazole carbamates (e.g. nocodazole) localize to the colchicine site near the C-terminus of β-tubulin at the αβ-tubulin intradimer interface, [16], whereas vinca alkaloids and maytansinoids localize to the N-terminal GTPase domain of β-tubulin [17], [18]. […] Its binding affinity, however, was ∼3-fold lower than that of nocodazole (compare values at 5 µmol/l and 20 µmol/l, Fig. 5C).
Tubulin binding of [^3H]colchicine was measured by the DEAE-cellulose filter method. Reaction mixtures contained 1.0 µmol/l αβ-tubulin, 1.0 mol/l monosodium glutamate, 0.1 mol/l glucose-1-phosphate, 1.0 mmol/l MgCl2, 1.0 mmol/l GTP, 0.5 mg/ml BSA, 5% DMSO, 5 µmol/l [^3H]colchicine, and inhibitor at 1, 5, 20 or 50 µmol/l. These reaction conditions strongly stabilize the colchicine-binding activity of tubulin [21].

taxol-stabilized MTs = assay: Compound-based depolymerization of taxol-stabilized MTs in vitro; format: biochemical, bovine; conditions: compound 50 µmol/l; taxol (20 µmol/l)-stabilized MTs
Procedure: To test this hypothesis, we treated HeLa cells with 0.5 µmol/l taxol, thereby arresting them in metaphase with stabilized spindles. […] To quantify the taxol-mediated inhibition of MT disassembly by compound B, we measured in vitro the depolymerization of taxol (20 µmol/l)-stabilized MTs following incubation with 50 µmol/l compound B (the screen condition). Nocodazole and maytansine (both at 50 µmol/l) were included as controls. At 50 µmol/l, compound B depolymerized 3% of the taxol-stabilized MT population, while nocodazole and maytansine depolymerized 11% and 31% of the taxol-treated MTs, respectively (Fig. 4B). […] This finding further supports our hypothesis that the interaction of compound B with the stabilized MTs must have prevented the Ndc80^488 complex from establishing contact with the MT surface.
MTs were polymerized (30 min, 37°C) from a 1∶10 mixture of rhodamine-labeled:unlabeled bovine brain αβ-tubulin (Cytoskeleton) in BRB-80 buffer (80 mmol/l PIPES pH 6.8, 1 mmol/l MgCl2, 1 mmol/l EGTA) and were then stabilized with 20 µmol/l taxol. The Ndc80^488 complex (0.1 µmol/l) was incubated with 100 µmol/l compound (30 min, 24°C) in 96-well polypropylene plates (Eppendorf). The 10,000 compound DIVERset library (Chembridge) and 200 compounds from the Department of Medicinal Chemistry and Technologies, University of Rome La Sapienza were used in the screen. Next, the MTs (100 nmol/l) were added to the compound-Ndc80^488 complex solution in a 1∶1 v/v ratio. After incubation (10 min, 24°C), the reaction mixtures were transferred to 96-well glass-bottom plates (Greiner Bio-one). Each well was imaged at 519 nm and 590 nm with an IX81 Olympus inverted wide-field microscope (Olympus). Total internal reflection fluorescence imaging was performed with an Olympus IX71 inverted wide-field microscope (Olympus). ImageJ was used for image processing (NIH, USA).
Taxol-stabilized MTs were prepared and diluted as described for the Ndc80^488 binding experiments. Varying compound concentrations in 10 µl of DMSO were added to 490 µl of diluted MTs at 37°C. Following incubation (30 min, 37°C), 450 µl of each mixture was centrifuged (10 min; 30,000 rpm; 37°C) in a Beckman Optima TLX centrifuge (TLA120.1 rotor). Pellets were dissolved in 25 µl of 8 mol/l urea, and the protein content of 20 µl was compared with that from pellets formed without compound.

Row | Fold lower IC50 for inhibiting tubulin assembly than that of compound B (αβ-tubulin) [fold] | IC50 [1] | Fold more active than compound B in the Ndc80^488 complex-MT binding assay [1] [fold] | Fold more active than compound B as inhibitors of [3H]colchicine-tubulin binding [2] [fold] | SMILES | Effect on mitosis at 500 nmol/l (HeLa cells) | Taxol-stabilized MT population depolymerized (taxol-stabilized MTs) [%]
1 | 3.0 | ~1000 nM and 1000 nM | ~20 | 3 | C/C=C/COC(=O)c1[nH]c2c(c1C)C(=O)C[C@@H](c1ccco1)C2 [D7] | robust mitotic block, followed by cell death | –
2 | 4.0 | ~1000 nM and 1000 nM | ~20 | 3 | C=CCOC(=O)c1[nH]c2c(c1C)C(=O)C[C@@H](c1ccco1)C2 [E7] | robust mitotic block, followed by cell death | –
3 | 2.3 | ~1000 nM and 1000 nM | ~20 | 3 | Cc1c(C(=O)OC2CCCCC2)[nH]c2c1C(=O)C[C@@H](c1ccco1)C2 [A6] | – | –
4 | – | – | – | – | COc1cc2cc(c1Cl)N(C)C(=O)C[C@H](OC(=O)[C@H](C)N(C)C(C)=O)[C@]1(C)O[C@H]1[C@H](C)[C@@H]1C[C@@](O)(NC(=O)O1)[C@H](OC)/C=C/C=C(\C)C2 [maytansine, reference compound] | – | 31
